We go through four compounds from publication PMC4453511 (mBio, 2015).

In this assay the target is Rv1026/PPX2 (6×His-Rv1026) (Mycobacterium tuberculosis, UniProt P96374).
Rv1026/PPX2 (6×His-Rv1026), sequence (P96374 whole entry): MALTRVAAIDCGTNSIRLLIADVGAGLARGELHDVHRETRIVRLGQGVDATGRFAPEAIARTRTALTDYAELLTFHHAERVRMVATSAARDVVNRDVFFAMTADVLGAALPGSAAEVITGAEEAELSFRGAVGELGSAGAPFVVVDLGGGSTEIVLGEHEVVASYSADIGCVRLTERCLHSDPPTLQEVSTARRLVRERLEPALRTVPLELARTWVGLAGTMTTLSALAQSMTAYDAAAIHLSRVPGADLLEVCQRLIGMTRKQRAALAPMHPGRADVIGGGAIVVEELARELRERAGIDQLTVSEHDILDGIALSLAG
For the compound `Nc1ncnc2c1ncn2[C@@H]1O[C@H](COP(=O)(O)O)[C@@H](O)[C@H]1O` [AMP], the “DAPI-based poly(P) hydrolysis assay” value is “accelerated when recombinant protein was incubated with AMP/ADP and GMP/GDP”.
With `Nc1ncnc2c1ncn2[C@@H]1O[C@H](COP(=O)(O)OP(=O)(O)O)[C@@H](O)[C@H]1O` [ADP], the “DAPI-based poly(P) hydrolysis assay” value was “accelerated when recombinant protein was incubated with AMP/ADP and GMP/GDP”.
For `Nc1nc2c(ncn2[C@@H]2O[C@H](COP(=O)(O)OP(=O)(O)O)[C@@H](O)[C@H]2O)c(=O)[nH]1` [GDP] the value was “accelerated when recombinant protein was incubated with AMP/ADP and GMP/GDP”; for `Nc1nc2c(ncn2[C@@H]2O[C@H](COP(=O)(O)O)[C@@H](O)[C@H]2O)c(=O)[nH]1` [GMP], “accelerated when recombinant protein was incubated with AMP/ADP and GMP/GDP”.
